Experimental findings from ChEMBL document CHEMBL1144500, “Design and synthesis of Rho kinase inhibitors (II)” (Bioorg Med Chem, 2007) are described below.

The structures appear in SMILES notation. ≈ marks a conversion by molar mass, not a printed value.

System in one data set: not listed separately
Put plainly: Solubility in 0.086N HCl containing 34 mM NaCl. In kind it is physicochemical.
In turn, `O=C(NCc1c(F)cccc1F)Nc1ccc2[nH]ncc2c1` returned a solubility of 5 µg/mL (≈ 16.5 µM). The same measure, in the same setting: the value for `c1ccc(CN2CCC(Nc3ccc4[nH]ncc4c3)CC2)cc1` was 881 µg/mL (≈ 2880 µM).

System in the next data set: not listed separately
Put plainly: Solubility in 50 mM KH2PO4 containing 24 mM NaOH. In kind it is physicochemical.
For the molecule `O=C(NCc1c(F)cccc1F)Nc1ccc2[nH]ncc2c1`, the solubility is below 1 µg/mL. Still for that read-out and setting: the value for `c1ccc(CN2CCC(Nc3ccc4[nH]ncc4c3)CC2)cc1` was 495 µg/mL (≈ 1620 µM).

A further data set deals with Rho-associated protein kinase (Homo sapiens, UniProt O75116+Q13464).
Turning to `Fc1ccc(CN2CCC(CNc3ccc4[nH]ncc4c3)CC2)cc1`, the IC50 is above 10000 nM. The same measure, in the same setting: in the case of `c1c[nH]c(CN2CCCC(Nc3ccc4[nH]ncc4c3)C2)c1` (stereo not drawn) it was 11 nM; in that of `O=C(NCc1ccccc1)Nc1ccc2[nH]ncc2c1`, 260 nM; in that of `O=C(Nc1ccc2[nH]ncc2c1)NC1CCN(Cc2ccccc2)CC1`, above 10000 nM. On the same count and under the same terms, the value for `O=C(NC1CCN(Cc2ccccc2)CC1)c1ccc2[nH]ncc2c1` was 540 nM; that for `O=C(NCc1c(F)cccc1F)Nc1ccc2[nH]ncc2c1` was 85 nM; that for `Clc1ccc(CN2CCC(Nc3ccc4[nH]ncc4c3)CC2)cc1` was 290 nM.

For the molecule `Nc1ccc(CN2CCCC(Nc3ccc4[nH]ncc4c3)C2)cc1` (stereo not drawn), the IC50 is 10 nM. On to `COc1ccc(CN2CCCC(Nc3ccc4[nH]ncc4c3)C2)cc1` (stereo not drawn), for which the IC50 is on record as 16 nM. On the same count and under the same terms, the value for `c1ccc(CN2CCCC(Nc3ccc4[nH]ncc4c3)C2)nc1` (stereo not drawn) was 240 nM; that for `Cc1n[nH]c2ccc(NC3CCCN(Cc4ccccc4)C3)cc12` (stereo not drawn) was 150 nM; that for `c1ccc(CN[C@H]2CC[C@@H](Nc3ccc4[nH]ncc4c3)CC2)cc1` was 320 nM.

Regarding `c1coc(CN2CCCC(Nc3ccc4[nH]ncc4c3)C2)c1` (stereo not drawn), the half-maximal inhibitory concentration (IC50) is reported as 65 nM. For `c1ccc(CN2CCC(Nc3ccc4[nH]ncc4c3)C2)cc1` (stereo not drawn), the IC50 amounted to 32 nM.

For `CN(CCNc1ccc2[nH]ncc2c1)Cc1ccccc1`, the half-inhibitory concentration (IC50) is 7900 nM.

The molecule `Fc1ccc(CN2CCCC(Nc3ccc4[nH]ncc4c3)C2)cc1F` (stereo not drawn) gave an IC50 of 10 nM. Take `Clc1cccc(CN2CCC(Nc3ccc4[nH]ncc4c3)CC2)c1`: the IC50 worked out at 290 nM.

Regarding `c1ccc(CN[C@H]2CC[C@H](Nc3ccc4[nH]ncc4c3)CC2)cc1`, the IC50 is reported as 520 nM. Same read-out and setting: the value for `COc1cc(CN2CCCC(Nc3ccc4[nH]ncc4c3)C2)cc(OC)c1` (stereo not drawn) was 80 nM.

Regarding `CC(C)CCN1CCCC(Nc2ccc3[nH]ncc3c2)C1` (stereo not drawn), the IC50 was 340 nM. Turning to `O=[N+]([O-])c1ccc(CN2CCCC(Nc3ccc4[nH]ncc4c3)C2)cc1` (stereo not drawn), the half-inhibitory concentration (IC50) was found to be 87 nM. As to `c1cc(CN2CCCC(Nc3ccc4[nH]ncc4c3)C2)c[nH]1` (stereo not drawn), the IC50 was above 1000 nM.

Regarding `O=C(NCc1ccc(Cl)cc1Cl)Nc1ccc2[nH]ncc2c1`, the IC50 is recorded as 220 nM.

For `Clc1ccc(CN2CCCC(Nc3ccc4[nH]ncc4c3)C2)cc1` (stereo not drawn), the IC50 is reported as 11 nM.

For `c1ccc(CN2CCCC(Nc3ccc4[nH]ncc4c3)C2)cc1` (stereo not drawn), the IC50 stood at 20 nM. The molecule `O=C(NCc1c(Cl)cccc1Cl)Nc1ccc2[nH]ncc2c1` gave an IC50 of 20 nM. On the same count and under the same terms, in the case of `Clc1ccccc1CN1CCC(Nc2ccc3[nH]ncc3c2)CC1` it was 440 nM; in that of `O=C(Nc1ccc2[nH]ncc2c1)C1CCCN(Cc2ccccc2)C1` (stereo not drawn), 18 nM.

With `c1cncc(CN2CCCC(Nc3ccc4[nH]ncc4c3)C2)c1` (stereo not drawn), the IC50 was found to be 72 nM.

In turn, `Clc1ccccc1CN1CCCC(Nc2ccc3[nH]ncc3c2)C1` (stereo not drawn) registered an IC50 of 13 nM.

With `c1ccc(CN2CCC(Oc3ccc4[nH]ncc4c3)CC2)cc1`, the IC50 is given as 100 nM.

In turn, `Fc1ccc(CN2CCCC(Nc3ccc4[nH]ncc4c3)C2)cc1` (stereo not drawn) returned an IC50 of 25 nM. Molecule `Cc1ccc(CN2CCCC(Nc3ccc4[nH]ncc4c3)C2)cc1` (stereo not drawn) came in with an IC50 of 9 nM.

In turn, `O=C(Nc1ccc2[nH]ncc2c1)C1CCN(Cc2ccccc2)CC1` registered an IC50 of 136 nM. Same read-out and setting: the value for `Nc1ccccc1CN1CCCC(Nc2ccc3[nH]ncc3c2)C1` (stereo not drawn) was 85 nM. Still for that read-out and setting: the value for `Clc1ccccc1CN1CCC(Nc2ccc3[nH]ncc3c2)C1` (stereo not drawn) was 45 nM. In turn, `Nc1cccc(CN2CCCC(Nc3ccc4[nH]ncc4c3)C2)c1` (stereo not drawn) gave an IC50 of 35 nM. Still for that read-out and setting: in the case of `c1cc(CN2CCCC(Nc3ccc4[nH]ncc4c3)C2)co1` (stereo not drawn) it was 180 nM; in that of `Clc1cccc(CN2CCCC(Nc3ccc4[nH]ncc4c3)C2)c1` (stereo not drawn), 19 nM. Still for that read-out and setting: in the case of `Cn1ncc2cc(NC3CCCN(Cc4ccccc4)C3)ccc21` (stereo not drawn) it was above 10000 nM; in that of `CCCN1CCCC(Nc2ccc3[nH]ncc3c2)C1` (stereo not drawn), 780 nM. On the same count and under the same terms, in the case of `c1ccc(CN2CCCC(Oc3ccc4[nH]ncc4c3)C2)cc1` (stereo not drawn) it was 10 nM.

System in another data set: not listed separately
Put plainly: Solubility in water. In kind it is physicochemical.
The molecule `O=C(NCc1c(F)cccc1F)Nc1ccc2[nH]ncc2c1` gave a solubility of 5 µg/mL (≈ 16.5 µM). Same read-out and setting: the value for `c1ccc(CN2CCC(Nc3ccc4[nH]ncc4c3)CC2)cc1` was 794 µg/mL (≈ 2590 µM).

For orientation: solubility means the dissolved amount per volume that the medium holds. A high value points to a readily soluble substance. By IC50 is commonly meant the concentration needed to halve the response being measured. A high value points to weaker potency in that assay.
